Experimental data taken from article PMC9153040 (Blood Advances, 2021).

Target: T1, ALAS2 (recombinant erythroid-specific 5-aminolevulinate synthase; hsALAS2 in transgenic MEL cells) (Homo sapiens, UniProt P22557)
T1 sequence (P22557 50-587): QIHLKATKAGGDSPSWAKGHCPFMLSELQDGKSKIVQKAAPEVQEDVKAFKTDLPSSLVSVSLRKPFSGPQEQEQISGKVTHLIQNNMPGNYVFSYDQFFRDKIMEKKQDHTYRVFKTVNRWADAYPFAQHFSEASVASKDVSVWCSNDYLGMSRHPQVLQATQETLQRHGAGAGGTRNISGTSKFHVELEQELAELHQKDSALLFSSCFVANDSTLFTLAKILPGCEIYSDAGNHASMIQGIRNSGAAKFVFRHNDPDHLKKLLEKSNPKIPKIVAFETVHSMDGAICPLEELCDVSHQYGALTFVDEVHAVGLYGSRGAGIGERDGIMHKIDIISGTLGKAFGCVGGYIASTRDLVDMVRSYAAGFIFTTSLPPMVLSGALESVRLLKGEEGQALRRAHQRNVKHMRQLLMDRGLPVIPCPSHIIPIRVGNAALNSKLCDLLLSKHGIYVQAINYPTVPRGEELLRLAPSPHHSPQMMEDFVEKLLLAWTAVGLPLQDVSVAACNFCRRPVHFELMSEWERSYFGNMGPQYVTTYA
Test: discontinuous colorimetric assay of ALA
Format: biochemical

Ki: 100 ± 20 µM
SMILES: C=C(CC(=O)SCCNC(=O)CCNC(=O)[C@H](O)C(C)(C)COP(=O)(O)OP(=O)(O)OC[C@H]1O[C@@H](n2cnc3c(N)ncnc32)[C@H](O)[C@@H]1OP(=O)(O)O)C(=O)O [itaconyl-CoA]
